Measurements as given in US9738614B2, “Malignant and non-malignant disease treatment with Ras antagonists” (PISCES THERAPEUTICS, LLC, priority 2011, dated 2017).

Key:
[1] = tested on: LAM cells; assay: IC50 assay with lymphangioleiomyomatosis (LAM) cells; assay type: cell-based; settings: Homo sapiens, 0.1 to 50 μM, read-out: half-maximal inhibition of viability
Experimental: (§1) U87MG cells were seeded in a 24-well plate, 5000 cells per well, and incubated overnight at 37° C. in serum-free media. The next day they were treated in triplicate with 50 and 100 μM of each test compound (1), (2), (3), (4), and (5) and the reference compound FTS. After five days, the cells were trypsinized (0.5%), stained with trypan blue, and counted to determine the cell number per well. The half-maximal inhibitory concentration (IC50) values were calculated using Multiplex Reader-Fit software made by MiraiBio Group, Hitachi Solutions America, Ltd. In a typical experiment, the control wells averaged 138,000 cells. The results are presented graphically in FIG. 1. The test compounds at 50 μM allowed the following U87MG cell proliferation compared to control: compound (1)—37%, compound (2)—18%, compound (3)—10%, compound (4)—40%, and compound (5)—0%. The reference compound FTS at 50 μM allowed 7% cell proliferation compared to control.
Human lymphangioleiomyomatosis (LAM) cells were subjected to an IC50 assay similar to Example 6 above.

[2] = tested on: sNF94.3 cells; assay: IC50 assay with sNF94.3 MPNST cells; assay type: cell-based; settings: Homo sapiens, 0.5 to 20 μM, read-out: half-maximal effect on viability
Experimental: as §1
Two additional MPNST cell lines, sNF94.3 and sNFO2.2, were subjected to IC50 assays similar to Examples 6 and 11 above. Like the ST88-14 cells from Example 11, the sNF94.3 and sNFO2.2 cells came from NF-1 patients too.

`CC(C)=CCC/C(C)=C/CC/C(C)=C/CSc1ccccc1C1=NCCN1` [compound (5), 2-(2-{[(2E,6E)-3,7,11-trimethyldodeca-2,6,10-trien-1-yl]sulfanyl}phenyl)-4,5-dihydro-1H-imidazole] was tested, and the IC50 [1] was 4 µM and the IC50 [2] was 2.7 µM.
